# From patent US7071211B2, “Small organic molecules that increase the activity of gelatinase a in ocular cells” (Bausch & Lomb Inc., priority 2002, dated 2006)
# Columns and labels:
# [1] = system: MT1-MMP; details: human cervical fibroblasts; Ito et al. 1998; cited from earlier work
# [2] = system: MT-MMP; assay: Thiopeptolide assay of cell-associated gelatinase activity ascribed to MT-MMP in TM cells; type: cell-based, Rhesus monkey; details: for Percent Activation Over control value: 48 hours incubation, OD 410 nm vs CACM control
# Description: Two days before molecule testing, the medium is replace by a defined, serum-free medium such as Minimum Essential Medium (MEM) containing defined supplements as described by Schachtschabel and Binninger, Z.f.Gerontol. […] Unless specifically noted, all molecules tested were prepared as stock solutions in dimethyl sulfoxide (DMSO) with a final concentration of 10 mg/ml. The stocks were stored in a dessicator at −20 degrees Celsius. In testing the molecules, the molecules were diluted to final concentrations of 0.3 ug/ml and 15 ug/ml in a simplified culture medium based on Ames' medium, called Concanavalin A (Con A) conditioning medium (CACM). The monkey TM cells were incubated with the test molecules for 48 hours. Control medium of CACM plus DMSO and a positive control with 5 ug/ml Con A plus DMSO were run in parallel. […] Next 100 uL of a doubly (2×) concentrated mixture of the thiopeptolide substrate (from a forty times (40×) concentrated DMSO stock, to give 1 mmol/L final concentration) freshly combined with the thiol reagent (5,5′dithiobis(2-nitrobenzoic acid (DTNB) from a twenty times (20×) concentrated DMSO stock to give 1 mmol/L) were added to each well and were incubated at 37 degrees Celsius for two hours with gentle agitation.
# At the end of the incubation period, by means of a spectrophoto-metric plate reader, the optical density (OD) at 410 nm was determined for each well after automatic subtraction of a blank value for a well containing reaction mixture but without cells. The average OD at the two-hour end point for each test molecule at all concentrations in triplicate was calculated. This calculation was interpreted to be a measure of cell-associated MT-MMP level, equivalently defined as either its activity (a catalytic property of the enzyme) or expression (number of functional molecules). The percent difference in OD for each sample compared to the CACM control reflects the effectiveness of each test molecule or combination of molecules in eliciting increases in MT-MMP levels. As an alternate to the end point OD reading, one may use the mean rate of appearance of the reaction product (mean V), calculated from the best linear fit of the data to absorbance vs. time.
# TM cells were exposed to molecules and combinations of molecules by means of simultaneous addition, from separate stocks, to incubation medium.
# [3] = system: MT-MMP; assay: Co-activation thiopeptolide assay (test compound with Con A or a second test compound) in TM cells; type: cell-based, Rhesus monkey
# Source text: Concanavalin A (Con A) binds to mannose groups on cell membrane gycoproteins. Because of its tetravalent nature, Con A binding leads to oligomerization of these “receptors,” possibly in the form of heterogeneous aggregates. Con A stimulation elicits increased expression of MT-MMP with concomitant ability to activate proGelA. The response, as measured by the magnitude of zymographic bands and by thiopeptolide assay, is dose-dependent. Thus the effects of co-activation using a submaximal dose of Con A plus treatment with a small molecule that may or may not be active by itself, are measured in the subject activation assay.
# For the coactivation assays, following the preliminary steps set forth above preceding incubation with test compounds in Example 1, cells subsequently undergo one of the following protocols. • Protocol 1. Cells are incubated with a particular test compound for twenty-four hours. This incubation period is followed by a second twenty-four hour incubation period, in which the culture medium containing the first test compound is completely replaced by medium containing 5 ug/ml Con A. • Protocol 2. Cells are incubated with a particular first test compound for twenty-four hours, followed by a second forty-eight hour incubation in which the medium containing the first test compound is completely replaced by medium containing either Con A, as described above, or a second test compound. • Protocol 3. Cells are incubated with a combination of a test compound together with 5 ug/ml Con A for forty-eight hours.
# Two controls, with or without 5 ug/ml Con A are run in parallel as described in Example 1. After incubation with these agents, cells are processed in equivalently to those in Example 1. Instead of comparison of the OD values with a CACM control, the results are compared with samples using Con A alone, or with a single test compound as described in Protocol 2 above, as set forth in Table 5 below.
# [4] = system: MT1-MMP; details: Alexander and Acott 1999; cited from earlier work
compound,measurement,setting,value
CN1CCN(CCCN2c3ccccc3Sc3ccc(C(F)(F)F)cc32)CC1 [trifluoperazine],MT1-MMP-induced activation of Gelatinase A (GelA),[1],resulted in MT1-MMP-induced activation of Gelatinase A
"Concanavalin A [Con A, reference compound]",Increased expression of MT-MMP on Con A stimulation (response),[2]; measured by magnitude of zymographic bands and by thiopeptolide assay,dose-dependent
CC(C)N(CCCOc1cccc2ccccc12)C(N)=O [Molecule 6],"Activity (% increase over Con A above, or as otherwise noted)","[3]; Protocol 1 (24 h test compound, then 24 h 5 ug/ml Con A), Conc. 104.8 umol/L with Con A",183.9%
same,"Activity (% increase over Con A above, or as otherwise noted)","[3]; Protocol 2 (24 h test compound, then 48 h Con A), Conc. 34.9 umol/L with Con A",49.0%
same,"Activity (% increase over Con A above, or as otherwise noted)","[3]; Protocol 2 (24 h test compound, then 48 h Con A), Conc. 100.0 umol/L with Con A",70.9%
same,Percent Activation Over control value,[2]; Conc. 1.0 umol/L,2.2%
same,Percent Activation Over control value,[2]; Conc. 52.4 umol/L,207.9%
CC/C(=N\NC(=N)N)c1ccccc1 [Molecule 9],Percent Activation Over control value,[2]; Conc. 1.18 umol/L,21.4%
same,Percent Activation Over control value,[2]; Conc. 118.44 umol/L,82.4%
NCCCCCCNS(=O)(=O)c1cccc2c(Cl)cccc12 [Molecule W-7],MT1-MMP-induced activation of Gelatinase A (GelA),[1],not particularly pronounced
NC(=O)N1c2ccccc2C=Cc2ccccc21 [Molecule 14],Percent Activation Over control value,[2]; Conc. 1.27 umol/L,7.7%
same,Percent Activation Over control value,[2]; Conc. 63.49 umol/L,115.6%
N=C(N)NNC(O)c1c(Cl)cccc1Cl (stereo not shown) [Molecule 12],Percent Activation Over control value,[2]; Conc. 1.05 umol/L,3.2%
same,Percent Activation Over control value,[2]; Conc. 52.53 umol/L,101.6%
N#C/C(=N\OC(=O)N1CCCCC1)c1c(F)cccc1F [Molecule 2],Percent Activation Over control value,[2]; Conc. 1.0 umol/L,33.8%
same,Percent Activation Over control value,[2]; Conc. 51.1.1 umol/L,420.5%
CNC(=O)N(CCOc1cccc(Cl)c1Cl)C(C)C [Molecule 7],"Activity (% increase over Con A above, or as otherwise noted)","[3]; Protocol 2 (24 h test compound, then 48 h Con A), Conc. 49.1 umol/L with Con A",59.8%
same,Percent Activation Over control value,[2]; Conc. 1.0 umol/L,(−7.9) Percent
same,Percent Activation Over control value,[2]; Conc. 49.2 umol/L,274.0%
COc1ccc(/C(C#N)=N/OC(=O)N2CCCCC2)cc1OC [Molecule 1],Percent Activation Over control value,[2]; Conc. 0.9 umol/L,48.1%
same,Percent Activation Over control value,[2]; Conc. 47.31 umol/L,260.4%
"CCCCCCCCCCCCCC(=O)O[C@@H]1[C@@H](C)[C@@]2(O)[C@@H](C=C(CO)C[C@]3(O)C(=O)C(C)=C[C@@H]23)[C@@H]2C(C)(C)[C@]12OC(C)=O [phorbol ester, phorbol 12-myristate 13-acetate]",Expression of MT1-MMP,[4],increased expression of MT1-MMP
Cc1cccc(Cl)c1/C=N/NC(=N)N [Molecule 8],Percent Activation Over control value,[2]; Conc. 2.6 umol/L,2.9%
same,Percent Activation Over control value,[2]; Conc. 12.98 umol/L,12.7%
same,Percent Activation Over control value,[2]; Conc. 64.91 umol/L,54.3%
same,Percent Activation Over control value,[2]; Conc. 129.81 umol/L,106.8%
CC(C#N)c1ccc2c(c1)N(C)C1C=CC=CC1S2 (stereo not shown) [Molecule 13],"Activity (% increase over Con A above, or as otherwise noted)","[3]; Protocol 1 (24 h test compound, then 24 h 5 ug/ml Con A), Conc. 1.1 umol/L with Con A",18.1%
same,"Activity (% increase over Con A above, or as otherwise noted)","[3]; Protocol 1 (24 h test compound, then 24 h 5 ug/ml Con A), Conc. 55.9 umol/L with Con A",109.5%
same,Percent Activation Over control value,[2]; Conc. 1.1 umol/L,74.6%
same,Percent Activation Over control value,[2]; Conc. 55.9 umol/L,68.5%
CSC(=N)N/N=C/c1c(Cl)cccc1Cl [Molecule 11],Percent Activation Over control value,[2]; Conc. 1.14 umol/L,(−20.9) Percent
same,Percent Activation Over control value,[2]; Conc. 57.22 umol/L,88.1%
CC(C)N(CC(O)COc1cccc2ccccc12)C(N)=O (stereo not shown) [Molecule 4],Percent Activation Over control value,[2]; Conc. 1.0 umol/L,5.9%
same,Percent Activation Over control value,[2]; Conc. 49.6 umol/L,73.4%
